Legend:
[1] = biological target: T1, 5-LO (Homo sapiens, UniProt P09917); assay: 5-LO products biosynthesis assay in thapsigargin-stimulated human PMNL; format: cell-based; design: 5-LO is highly expressed in PMNL; endogenous in cells; host or cells: human PMNL from peripheral blood; details: for potency relative to Zileuton (1) in human PMNL: comparison of IC50 values, thapsigargin-stimulated human PMNL; for IC50: read-out: Human PMNL IC50 (μM) [SD]
T1 sequence (P09917 1-674): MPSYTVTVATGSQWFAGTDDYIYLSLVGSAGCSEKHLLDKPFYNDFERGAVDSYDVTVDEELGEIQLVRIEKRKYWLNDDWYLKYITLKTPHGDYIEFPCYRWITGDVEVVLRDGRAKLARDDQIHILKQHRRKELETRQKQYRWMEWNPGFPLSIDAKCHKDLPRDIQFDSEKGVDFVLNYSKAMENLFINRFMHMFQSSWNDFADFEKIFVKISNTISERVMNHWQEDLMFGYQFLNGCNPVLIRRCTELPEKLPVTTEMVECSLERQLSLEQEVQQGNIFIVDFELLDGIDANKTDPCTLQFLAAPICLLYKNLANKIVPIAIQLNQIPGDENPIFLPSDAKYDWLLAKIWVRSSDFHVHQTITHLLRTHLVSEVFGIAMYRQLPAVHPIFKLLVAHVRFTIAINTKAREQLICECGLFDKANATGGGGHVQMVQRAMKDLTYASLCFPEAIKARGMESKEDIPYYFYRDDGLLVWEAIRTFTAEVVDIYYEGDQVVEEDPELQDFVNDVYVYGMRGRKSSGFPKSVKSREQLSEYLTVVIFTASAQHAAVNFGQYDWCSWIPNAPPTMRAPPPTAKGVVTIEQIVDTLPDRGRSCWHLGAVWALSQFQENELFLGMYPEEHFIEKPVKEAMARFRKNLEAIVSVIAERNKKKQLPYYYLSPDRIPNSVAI
Method: Human PMNL were prepared from peripheral blood as described and were suspended in HBSS containing 1.6 mM CaCl2 (10^7 cells/mL) and preincubated with compounds for 5 min at 37°C in the presence of 1 U/mL of adenosine deaminase (Sigma-Aldrich, Oakville, ON, Canada). Cells were then stimulated for 15 min at 37°C with 1 μM thapsigargin (Sigma-Aldrich). Reactions were stopped by the addition of 0.5 volume of cold MeOH : CH3CN (1 : 1) and 50 ng of PGB2 as internal standard and samples were stored at −20°C until processing on octadecyl (C18) columns and RP-HPLC analysis as indicated above. Data are expressed as means ± SEM of 3 independent experiments, each performed in duplicate (Figures 4 and 5).
5-LO is highly expressed in PMNL and these cells are important producers of LTB4 [28, 32].

[2] = Antiradical activity assay (DPPH radical scavenging); details: DPPH in ethanol, 30 min in the dark at room temperature, absorbance 520 nm; mean [SD] of 2 experiments
Method: The radical scavenging activity of test compounds was measured as previously described using 2,2-diphenyl-1-picrylhydrazyl (DPPH) as a stable radical with slight modifications. Particular care was taken in the preparation of the control (DPPH reagent + ethanol as a diluent without test compounds). Controls with O.D. of 0.350-0.360 at 520 nm were deemed as acceptable to avoid variations in IC50 calculations. 1 mL of DPPH in ethanol ([…]) was mixed with 1 mL of the test compounds at the indicated concentrations or their diluent (ethanol). Each mixture was then shaken vigorously and held in the dark for 30 min at room temperature. The absorbance of DPPH at 520 nm was then measured. The radical scavenging activity was expressed in terms of % inhibition of DPPH absorbance: (1) % Inhibition=[(Acontrol−Atest)/(Acontrol)] ×100, where A control is the absorbance of the control (DPPH solution without test compound) and A test is the absorbance of the test sample (DPPH solution plus compound). Data are expressed as means ± SD of 2 independent experiments, each performed in triplicate (Table 1). IC50 values were calculated from a sigmoidal concentration-response curve fitting model with a variable slope on GraphPad Prism 5 software (GraphPad software, San Diego, California).
Radical scavenging activities of analogous cinnamoyl esters 8a–h, cinnamoyl amides 9a–h, caffeoyl esters 15a–h, and caffeoyl amides 16a–h were assayed using 2,2-diphenyl-1-picrylhydrazyl (DPPH) as a stable radical and are expressed as IC50 concentrations in Table 1.

[3] = biological target: T1, 5-LO; assay: 5-LO products biosynthesis assay in whole HEK293 cells stably transfected with 5-LO and FLAP; format: cell-based; design: expressed in transfected cells; details: for potency relative to Zileuton (1) in HEK293 cells: comparison of IC50 values
From the text: HEK293 cells were cotransfected with a pcDNA3.1 vector expressing 5-LO and a pBUDCE4.1 vector expressing 5-LO activating protein (FLAP) using Polyfect reagent (QIAGEN, Mississauga, ON, Canada) according to the manufacturer's protocol. Stable transfections of HEK293 cells were obtained following cell culture in the presence of Geneticin and Zeocin (Invitrogen, Burlington, ON, Canada). The resulting stable double transfectants were propagated in culture and aliquots were frozen. Once thawed for a series of experiments, each aliquot of cells is cultured for a maximum of 6 weeks before being discarded.
For cell stimulation of 5-LO products, transfected HEK293 cells were collected following trypsinization, washed and the cell pellet was resuspended in Hank's balanced salt solution (HBSS) (Lonza, Walkersville, MD) containing 1.6 mM CaCl2 at a concentration of 5 × 10^5 cells mL^−1. Cells were preincubated with each compound at the indicated concentration for 5 min at 37°C. Cells were then stimulated for 15 minutes at 37°C with the addition of 10 μM calcium ionophore A23187 (Sigma-Aldrich, Oakville, ON, Canada) and 10 μM arachidonic acid (Cayman Chemical, Ann Arbor, MI). Stimulations were stopped and processed on RP-HPLC as described previously. Data are expressed as means ± SEM of 3 independent experiments, each performed in duplicate (Figures 2 and 3).

Row | Compound | melting point | IC50 [2] [µM] | further results
1 | O=C(C=Cc1ccccc1)OCCn1ccnn1 [8a, 2-(1H-1,2,3-Triazol-1-yl)ethyl Cinnamate] | 99 to 100 °C |  | 
2 | CCCc1cn(CCOC(=O)C=Cc2ccccc2)nn1 [8b, 2-(4-Propyl-1H-1,2,3-triazol-1-yl)ethyl Cinnamate] | 63 to 64 °C |  | 
3 | O=C(C=Cc1ccccc1)OCCn1cc(C2CCCCC2)nn1 [8c] | 119 °C |  | 
4 | O=C(C=Cc1ccccc1)OCCn1cc(C2=CCCCC2)nn1 [8d] | 101 to 103 °C |  | 
5 | O=C(C=Cc1ccccc1)OCCn1cc(-c2ccccc2)nn1 [8e] | 122 to 123 °C |  | 
6 | Cc1ccc(-c2cn(CCOC(=O)C=Cc3ccccc3)nn2)cc1 [8f] | 139 to 140 °C |  | 
7 | O=C(C=Cc1ccccc1)OCCn1cc(-c2ccc(F)cc2)nn1 [8g] | 134 to 135 °C |  | 
8 | O=Cc1ccc(-c2cn(CCOC(=O)C=Cc3ccccc3)nn2)cc1 [8h] | 127 to 128 °C |  | 
9 | O=C(C=Cc1ccccc1)NCCn1ccnn1 [9a] | 140 to 141 °C |  | 
10 | O=C(C=Cc1ccccc1)NCCn1cc(C2CCCCC2)nn1 [9c] | 159 to 161 °C |  | 
11 | O=C(C=Cc1ccccc1)NCCn1cc(C2=CCCCC2)nn1 [9d] | 170 to 171 °C |  | 
12 | O=C(C=Cc1ccccc1)NCCn1cc(-c2ccccc2)nn1 [9e] | 171 to 173 °C |  | 
13 | Cc1ccc(-c2cn(CCNC(=O)C=Cc3ccccc3)nn2)cc1 [9f] | 208 °C |  | 
14 | O=C(C=Cc1ccccc1)NCCn1cc(-c2ccc(F)cc2)nn1 [9g] | 193 to 196 °C |  | 
15 | O=Cc1ccc(-c2cn(CCNC(=O)C=Cc3ccccc3)nn2)cc1 [9h] | 200 to 201 °C |  | 
16 | O=C1O[C@H]([C@@H](O)CO)C(O)=C1O [Ascorbic acid, reference compound] |  | 75.4 | 
17 | O=C(/C=C/c1ccc(O)c(O)c1)OCCc1ccccc1 [CAPE 2, caffeic acid phenethyl ester, reference compound] |  | 16.5 | 5-LO products synthesis, % of the control value ([3]; whole HEK293 cells, 1 μM): roughly 50%; inhibition at 1 µM ([3]; whole HEK293 cells, 1 μM, read-out: inhibition of LTs biosynthesis): ~50%; inhibition at 1 µM ([1]; read-out: inhibition of 5-LO, stimulated human PMNL, 1 μM): ~75%
18 | CC(c1cc2ccccc2s1)N(O)C(N)=O (stereo not drawn) [Zileuton 1, Zileuton, reference compound] |  | > 100 | 5-LO inhibition in whole HEK293 cells (in words) ([3]; whole HEK293 cells, 1 μM): little to no activity; inhibition at 10 µM ([3]; whole HEK293 cells, 10 μM (not shown)): ~25%
19 | O=C(/C=C/c1ccc(O)c(O)c1)OCCn1cc(COC(=O)/C=C/c2ccccc2)nn1 [compound 3, reference compound] |  | 12 | 5-LO inhibition in stimulated human PMNL (in words) ([1]; stimulated human PMNL, 1 μM): roughly equipotent with Zileuton

Second part, led by results:

Row | melting point | IC50 [2] [µM] | Compound | further results
20 | 196 to 198 °C (dec.) | 9.55 | O=C(/C=C/c1ccc(O)c(O)c1)OCCn1ccnn1 [15a, (E)-2-(1H-1,2,3-Triazol-1-yl)ethyl 3-(3,4-Dihydroxyphenyl)acrylate] | 5-LO inhibition in stimulated human PMNL (in words) ([1]; stimulated human PMNL, 1 μM): complete loss of inhibition
21 | 180 to 181 °C (dec.) | 9.37 | CCCc1cn(CCOC(=O)/C=C/c2ccc(O)c(O)c2)nn1 [15b] | 
22 | 191 °C (dec.) | 9.3 | O=C(/C=C/c1ccc(O)c(O)c1)OCCn1cc(C2CCCCC2)nn1 [15c] | 
23 | 219 to 220 °C (dec.) | 8.7 | O=C(/C=C/c1ccc(O)c(O)c1)OCCn1cc(C2=CCCCC2)nn1 [15d] | 5-LO inhibition in stimulated human PMNL (in words) ([1]; stimulated human PMNL, 1 μM): roughly equipotent with Zileuton
24 | 193 to 195 °C (dec.) | 15.1 | O=C(/C=C/c1ccc(O)c(O)c1)OCCn1cc(-c2ccccc2)nn1 [15e] | 
25 | 181 to 182 °C (dec.) | 9.01 | Cc1ccc(-c2cn(CCOC(=O)/C=C/c3ccc(O)c(O)c3)nn2)cc1 [15f] | potency relative to Zileuton (1) in HEK293 cells [3]: four times more potent than Zileuton; potency relative to Zileuton (1) in human PMNL [1]: equivalent to Zileuton; IC50 [1]: 3.1 µM; 5-LO inhibition in stimulated human PMNL (in words) ([1]; stimulated human PMNL, 1 μM): roughly equipotent with Zileuton
26 | 238 to 240 °C (dec.) | 9.4 | O=C(/C=C/c1ccc(O)c(O)c1)OCCn1cc(-c2ccc(F)cc2)nn1 [15g] | potency relative to Zileuton (1) in HEK293 cells [3]: four times more potent than Zileuton; potency relative to Zileuton (1) in human PMNL [1]: equivalent to Zileuton; IC50 [1]: 3.3 µM
27 | 220 to 230 °C (dec.) | 8.85 | O=Cc1ccc(-c2cn(CCOC(=O)/C=C/c3ccc(O)c(O)c3)nn2)cc1 [15h] | 5-LO inhibition in stimulated human PMNL (in words) ([1]; stimulated human PMNL, 1 μM): roughly equipotent with Zileuton
28 | 163 to 165 °C | 15.4 | O=C(/C=C/c1ccc(O)c(O)c1)NCCn1ccnn1 [16a] | 
29 | 163 to 165 °C | 12.1 | CCCc1cn(CCNC(=O)/C=C/c2ccc(O)c(O)c2)nn1 [16b] | 
30 | 183 to 184 °C | 9.87 | O=C(/C=C/c1ccc(O)c(O)c1)NCCn1cc(C2CCCCC2)nn1 [16c] | 
31 | 168 to 169 °C | 11.2 | O=C(/C=C/c1ccc(O)c(O)c1)NCCn1cc(C2=CCCCC2)nn1 [16d] | 
32 | 208 °C (dec.) | 10.5 | O=C(/C=C/c1ccc(O)c(O)c1)NCCn1cc(-c2ccccc2)nn1 [16e] | 
33 | 220 °C (dec.) | 13 | Cc1ccc(-c2cn(CCNC(=O)/C=C/c3ccc(O)c(O)c3)nn2)cc1 [16f] | potency relative to Zileuton (1) in HEK293 cells [3]: equipotent to Zileuton; 5-LO inhibition in whole HEK293 cells (in words) ([3]; whole HEK293 cells, 1 μM): no significant 5-LO inhibitory activity; potency relative to Zileuton (1) in human PMNL [1]: less active than Zileuton; IC50 [1]: 8.2 µM
34 | 226 °C (dec.) | 12 | O=C(/C=C/c1ccc(O)c(O)c1)NCCn1cc(-c2ccc(F)cc2)nn1 [16g] | potency relative to Zileuton (1) in HEK293 cells [3]: equipotent to Zileuton; 5-LO inhibition in whole HEK293 cells (in words) ([3]; whole HEK293 cells, 1 μM): no significant 5-LO inhibitory activity; potency relative to Zileuton (1) in human PMNL [1]: less active than Zileuton; IC50 [1]: 8.8 µM
35 | 228 to 230 °C (dec.) | 18.1 | O=Cc1ccc(-c2cn(CCNC(=O)/C=C/c3ccc(O)c(O)c3)nn2)cc1 [16h] | 

From publication PMC4207410, “Clicked Cinnamic/Caffeic Esters and Amides as Radical Scavengers and 5-Lipoxygenase Inhibitors” (International Journal of Medicinal Chemistry, 2014)
